Here are results for 83 compounds from PubChem BioAssay AID1576 (EPA DSSTox, 2009).

The source made the active and inactive calls.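 Rule for the calls: active = chemicals shown by follow-up kinetic tests to compete for rat estrogen receptor sites, with a measured inhibition constant; inconclusive = some binding seen but constant unmeasurable owing to poor solubility; inactive = no binding up to top dose, or binding unconfirmed.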

The data set deals with Estrogen receptor (Rattus norvegicus) (UniProt P06211). The data set is described as follows: DSSTox (KIERBL) EPA Estrogen Receptor Ki Binding Study (Laws et al.) Database. Conditions: Rat uterine cytosol ER, 3H-estradiol competitive binding. As to the method:
This study was conducted by EPA researchers to evaluate the validity of the rat uterine cytosolic (RUC) estrogen receptor (ER) competitive binding assay for use in the Endocrine Disruption Screening Program (EDSP). The assay measures the ability of radiolabeled 17-beta-estradiol (3H-E2) to bind with RUC ER in the presence of increasing concentrations of a test chemical. The goal is to employ this in vitro assay as a 1st tier screening tool for assessing the potential of structurally diverse environmental chemicals to bind to the ER, as well as to support research efforts to develop computational models to predict ER binding. A distinguishing feature of the present study was the use of secondary experimental analysis of binding curves and determination of Ki values to confirm that measured IC50 values corresponded to true positive results. The study concluded that a number of experimental conditions can confound interpretation of IC50 values obtained from the RUC ER-binding assay data and lead to false positive results. In particular, some chemical treatments likely alter the stability of the assay by changing the buffer pH, denaturing ER, or disrupting the ER binding kinetics. […] The chemicals used in this study were selected as part of a validation test for two Quantitative Structure-Activity Relationship (QSAR) models designed to predict ER binding [Fed. Reg. 67(250), 79618, Dec. 30, 2002]. Several hundred chemicals were initially screened, including approximately 100 chemicals selected from among the High Production Volume (HPV) chemicals included in EPA's Toxic Substances Control Act (TSCA) inventory that were predicted to be positive for ER binding, with the rest selected at random from the TSCA inventory. All chemicals were initially tested in ER competitive binding assays by Battelle Pacific Northwest Laboratories, Richland, Washington [EPA Contract Number 68-W-99-033, Task 6]. Approximately 50 chemicals produced binding curves that: (1) strongly implied competitive inhibition of ER binding, or (2) produced partial curves or irregular (non-sigmoid) binding curves. These chemicals were further evaluated in an ER competitive binding assay with secondary analysis to confirm true competitive inhibition and to determine an experimental Ki [U.S. EPA Contract 3D-5967-NTEX]. The results of RUC ER screening for these 50 structurally diverse chemicals, for which secondary confirmatory analyses were performed, were published in the Main Citation (Laws et al., 2006, Tox. Sci. 94:46-56). The remaining 228 chemicals were designated as non-binders based on initial screening studies.
The DSSTox KIERBL data files include all published IC50 and Ki experimental results for the 50 chemicals included in the Main Citation (Laws et al., 2006) (denoted Group 1), as well as previously unpublished results for an additional 228 structually diverse TSCA chemicals for which no ER binding was observed (denoted Group 2. IC50 values were determined for 32 compounds in Group 1 as the concentration of a test chemical that inhibits the maximal specific binding of 0.33 nM radiolabeled (3H) 17-beta-estradiol (E2) to rat uterine cytosolic (RUC) estrogen receptor (ER) by 50%. Confirmation of binding status was accomplished by secondary analysis using Lineweaver-Burk plots and slope replots to determine true competitive inhibition and an experimental Ki value. Ki is the inhibition constant for the test chemical, i.e., the concentration of the test chemical that will bind to half the binding sites at equilibrium (displacing half of the probe-bound receptors), in the absence of radioligand or other competitors. Ki reported as Mean +/- Standard Error from n=2 experiments (see StandardError_Ki_n2) and is determined from Lineweaver-Burk plots over the tested dose range (TestedRange_microM). For more information see BindingCurve_Group and BindingCurve_Details. […]

Estrogen receptor (Rattus norvegicus), sequence (P06211 whole entry, looked up): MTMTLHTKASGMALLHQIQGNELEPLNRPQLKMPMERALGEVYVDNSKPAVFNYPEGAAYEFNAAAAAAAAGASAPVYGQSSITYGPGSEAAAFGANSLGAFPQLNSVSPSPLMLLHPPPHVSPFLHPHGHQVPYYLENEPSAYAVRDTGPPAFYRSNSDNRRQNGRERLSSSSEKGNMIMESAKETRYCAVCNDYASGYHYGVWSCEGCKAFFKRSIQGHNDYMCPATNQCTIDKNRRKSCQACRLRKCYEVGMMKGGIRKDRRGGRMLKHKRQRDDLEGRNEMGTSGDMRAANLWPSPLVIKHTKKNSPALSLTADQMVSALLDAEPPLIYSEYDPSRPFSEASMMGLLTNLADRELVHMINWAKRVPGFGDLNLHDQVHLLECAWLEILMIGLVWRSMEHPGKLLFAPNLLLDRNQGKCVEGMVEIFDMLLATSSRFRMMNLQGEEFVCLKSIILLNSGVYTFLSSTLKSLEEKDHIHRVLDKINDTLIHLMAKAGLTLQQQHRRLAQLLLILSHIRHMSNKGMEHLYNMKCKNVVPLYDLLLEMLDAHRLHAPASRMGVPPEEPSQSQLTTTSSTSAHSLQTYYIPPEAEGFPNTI

With `C[Si](O)(O)O`, the outcome is “inactive; none”.

As to `C(CCOCC1CO1)COCC1CO1` (stereo not drawn), the outcome is “inactive; none”. Regarding `O=Cc1ccc(F)cc1`, the outcome was “inactive; none”.

Regarding `CCc1ccc(CC)cc1`, the outcome is “inactive; none”. For `O=C=NCCCCCCN=C=O`, the outcome is “inactive; none”. With `COc1nc(C)nc(NC(=O)NS(=O)(=O)c2ccccc2Cl)n1`, the outcome is “inactive; none”. Turning to `CCO[Si](C)(CCCN)OCC`, the outcome is “inactive; none”. On to `COC(=O)CCCCC(=O)OC`, for which the outcome was “inactive; none”. On to `CC(C)CCCCCOC(=O)CS`, for which the outcome is “inactive; none”. On to `Oc1ccc(Sc2ccc(O)cc2O)c(O)c1`, for which the outcome is “inactive; incomplete”. Consider `NNC(=O)NN`, for which the outcome is “inactive; none”. In the case of `C=C[Si](C)(C)O[Si](C)(C)C=C`, the outcome is “inactive; none”. The same measure, in the same setting: as for `Nc1c(N=Nc2ccc([N+](=O)[O-])cc2)c(S(=O)(=O)O)cc2cc(S(=O)(=O)O)c(N=Nc3ccccc3)c(O)c12`, the entry is “inactive; none”; as for `Cc1cc(C(C)(C)C)c(O)c(C)c1Cn1c(=O)n(Cc2c(C)cc(C(C)(C)C)c(O)c2C)c(=O)n(Cc2c(C)cc(C(C)(C)C)c(O)c2C)c1=O`, “inactive; none”.

As for `O=P(O)(O)CCCl`, the outcome was “inactive; none”. For `CCCCCCCCCCCCCCCCCCN`, the outcome is “inactive; none”. In the case of `CCOC(=O)c1ccccc1`, the outcome was “inactive; none”. Regarding `Cc1cc(O)ccc1Cl`, the Potency (TestedRange_microM: 30-200) is 373 µM. `C=CC(=O)OCCC(C)OC(=O)C=C` (stereo not drawn): the outcome is “inactive; none”. Same read-out and setting: as for `O=S(=O)(O)c1ccccc1Nc1ccc(C(=C2C=CC(=Nc3ccccc3)C=C2)c2ccc(Nc3ccccc3)cc2)cc1`, the entry is “inactive; none”. Regarding `COc1ccc(C(=O)c2ccc(OC)cc2O)c(O)c1`, the outcome is “inactive; none”. For the compound `O=S(=O)(O)c1ccc(N=Nc2c(O)ccc3ccccc23)cc1`, the outcome was “inactive; none”.

On to `CN(C)c1ccc(C(=C2C=CC(=[N+](C)C)C=C2)c2ccc(N(C)C)cc2)cc1`, for which the outcome is “inactive; none”. For `CC(c1ccc(O)cc1)(c1ccc(O)cc1)c1ccc(O)cc1`, the Potency (TestedRange_microM: 20-70) is 18.3 µM. Consider `OCCS`, for which the outcome was “inactive; none”.

Regarding `CN(C)c1ccc(C(=C2C=CC(=Nc3ccccc3)c3ccccc32)c2ccc(N(C)C)cc2)cc1`, the outcome is “inactive; none”. As for `CC(C)CCC(C)Nc1ccc(NC(C)CCC(C)C)cc1` (stereo not drawn), the outcome was “inactive; none”. For `Cc1ccc2n[nH]nc2c1`, the outcome is “inactive; none”. `C=CC(=O)OCC(C)C`: the outcome is “inactive; none”. For `CCCCCCCCCCCCCCC(Br)C(=O)O` (stereo not drawn), the outcome was “inactive; incomplete”.

For the compound `COC(OC)(C(=O)c1ccccc1)c1ccccc1`, the Potency (TestedRange_microM: 10-100) was 136 µM. Take `CC1COc2ccccc2N1C(=O)C(Cl)Cl` (stereo not drawn): the outcome was “inactive; none”. On to `NC(=O)c1ccc(N)cc1`, for which the outcome was “inactive; none”. As for `O=C(O)c1ccccc1COc1ccccc1`, the outcome is “inactive; none”. On the same count and under the same terms, the same measure for `CCN(CC)c1nc(C)cc(OP(=S)(OC)OC)n1`: “inactive; none”; for `O=C1CCC(=O)N1Br`: “inactive; none”; for `c1ccc(-c2ccccc2)cc1`: “inactive; none”. As to `CCOC(=O)/C=C/c1ccc(/C=C/C(=O)OCC)cc1`, the outcome was “inactive; none”. Take `CC(C)(C)[Si](C)(C)Cl`: the outcome was “inactive; none”.

Regarding `O=C(O[C@@H](C(=O)O)[C@@H](OC(=O)c1ccccc1)C(=O)O)c1ccccc1`, the outcome was “inactive; none”. In the case of `CCC(CO)(CO)CO`, the outcome was “inactive; none”.

`CC/C=C\CCOC(=O)c1ccccc1O`: the outcome is “inactive; incomplete”. Regarding `COC(=O)c1ccccc1S(=O)(=O)NC(=O)N(C)c1nc(C)nc(OC)n1`, the outcome was “inactive; none”.

On to `O=CCCl`, for which the outcome is “inactive; none”. The same measure, in the same setting: the same measure for `CCCCOCCCOC(=O)COc1ccc(Cl)cc1Cl`: “inactive; none”; for `Cc1ccc(C(=O)c2ccccc2)cc1`: “inactive; incomplete”; for `C1CCC(NC2CCCCC2)CC1`: “inactive; none”. For the compound `C=CC(=O)OCC(C)O` (stereo not drawn), the outcome is “inactive; none”. Take `O=Cc1ccccc1[N+](=O)[O-]`: the outcome was “inactive; none”. On to `CCCCCCCCCCCCOCCOCCO`, for which the outcome is “inactive; none”. For the compound `CCOc1ccc2c(c1)C(C)=CC(C)(C)N2`, the outcome was “inactive; none”. Take `CCCCCCCCCCCCCCCCCCOC(=O)CCc1cc(C(C)(C)C)c(O)c(C(C)(C)C)c1`: the outcome was “inactive; none”. Regarding `OCCOc1ccc(OCCO)cc1`, the outcome is “inactive; none”.

For the compound `Oc1ccc2ccccc2c1N=Nc1ccccc1`, the outcome was “inactive; none”.

For `CCCCCCCCCCCCCCCCCC[N+](C)(C)C`, the outcome (TestedRange_microM: 10-100) was “inactive; irregular”.

Turning to `CCCCOC(=O)CCC(C)=O`, the outcome was “inactive; none”. Turning to `CCCCCCCCCCCCCCBr`, the outcome was “inactive; none”.

As for `Fc1cccc(Cl)c1CCl`, the outcome was “inactive; none”. As for `CCCCCCCCCCCCCCN(C)C`, under “TestedRange_microM: 1-10”, the outcome was “inactive; complete”. With `O=C(Cl)c1ccccc1`, the outcome is “inactive; none”. On to `CCOC(=O)C(CC)C(=O)OCC`, for which the outcome was “inactive; none”. As for `O=NN(c1ccccc1)c1ccccc1`, the outcome is “inactive; none”. `O=[N+]([O-])c1c(Cl)c(Cl)c(Cl)c(Cl)c1Cl`: the outcome is “inactive; none”. Still for that read-out and setting: the same measure for `Cc1ccc([N+](=O)[O-])c(C)c1`: “inactive; none”. Turning to `O=C(c1ccccc1)c1ccc(O)c(O)c1O`, the Potency (TestedRange_microM: 10-100) was 103 µM.

As to `CC(C)COC(=O)CC(C(=O)OCC(C)C)S(=O)(=O)O` (stereo not drawn), the outcome was “inactive; none”. For the compound `CCCCNCCCCCCNCCCC`, the outcome is “inactive; none”. Take `O=C(OCc1ccccc1)c1ccc(O)cc1`: the Potency (TestedRange_microM: 25-75) was 34.2 µM. Take `O=C(Oc1ccccc1)c1ccccc1O`: the outcome is “inactive; incomplete”. The same measure, in the same setting: the same measure for `CCCCCCOC(=O)c1ccccc1C(=O)OCCCCCC`: “inactive; none”; for `CCN=C1C=CC(=C(c2ccc(N(CC)CC)cc2)c2ccc(N(CC)CC)cc2)c2ccccc21`: “inactive; none”. `C=C(C)c1ccc(C(=C)C)cc1`: the outcome was “inactive; none”. In the case of `CCCCCCCCCCCCCC(=O)OCCCC`, the outcome was “inactive; none”. As to `Cc1cc(C)c(C)cc1C`, the outcome was “inactive; none”. As for `CCCCCCC`, the outcome is “inactive; none”. `O=C=NCc1cccc(CN=C=O)c1`: the outcome is “inactive; none”. `CC1=CC(=C(c2ccc(N)cc2)c2ccc(N)cc2)C=CC1=N`: the outcome is “inactive; none”.

For the compound `CC(C)(c1cc(Br)c(OCCO)c(Br)c1)c1cc(Br)c(OCCO)c(Br)c1`, the outcome is “inactive; none”. On to `O=C(OCc1ccccc1)C(=O)OCc1ccccc1`, for which the outcome is “inactive; none”.

For the compound `CCCCCCCC[Si](Cl)(Cl)Cl`, the outcome was “inactive; none”.

Take `N#CCc1ccccc1`: the outcome is “inactive; none”. Regarding `CO[Si](CCCN)(OC)OC`, the outcome is “inactive; none”. The same measure, in the same setting: as for `c1ccsc1`, the entry is “inactive; none”.
